SMILES strings stand for the structures.

Holding throughout (assay type): cell-based
A short description of data set [1]: SRB colorimetric cell growth inhibition assay, H-MEC-1. The settings on record: human; H-MEC-1; cell killing (cytotoxic effect); read-out: LC50 H-MEC-1. The text has this: A colorimetric type of assay, using sulforhodamine B (SRB) reaction has been adapted for a quantitative measurement of cell growth and viability (following the technique described by P. A. Skehan, et al., J. Natl. Cancer Inst. 1990, 82, 1107-1112).
This form of assay employs 96 well cell culture microplates of 9 mm diameter (T. Mosmann et al., J. of Immunological Methods 1983, 65, 55-63; G. T. Faircloth et al., J. of Tissue and Culture Methods 1988, 11, 201-205).
Most of the cell lines are obtained from American Type Culture Collection (ATCC) derived from different human cancer types.
The values for mean +/− SD of data from triplicate wells are calculated. Some parameters for cellular responses can be calculated: GI=growth inhibition, TGI=total growth inhibition (cytostatic effect) and LC=cell killing (cytotoxic effect).

For a further data set, the system named is IGROV-ET. Briefly: SRB colorimetric cell growth inhibition assay, IGROV-ET (ET-743 resistant). The settings on record: Homo sapiens. The gist of the method: (§1)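 Human tumour cells were exposed continuously to the test sample, and growth and viability were quantified by sulforhodamine B staining. Means ± SD came from triplicate wells, and GI, TGI (cytostatic) and LC (cell killing) parameters were derived.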

Another data set relates to SK-MEL-28. Briefly: SRB colorimetric cell growth inhibition assay, SK-MEL-28. The settings on record: Homo sapiens. The gist of the method:
as §1

The subject of another data set is SK-BR-3. The data set is described as follows: SRB colorimetric cell growth inhibition assay, SK-BR-3. The settings on record: Homo sapiens. In outline: as §1
The subject of a further data set is HT-29. Briefly: SRB colorimetric cell growth inhibition assay, HT-29. The following applies: Homo sapiens. The gist of the method: as §1
Another data set has as its system LoVo-Dox. Briefly: SRB colorimetric cell growth inhibition assay, LoVo-Dox (MDR). The settings on record: Homo sapiens. In outline:
as §1

The nature of data set [2]: SRB colorimetric cell growth inhibition assay, H-MEC-1. The following applies: human, LC50 H-MEC-1. The gist of the method:
(§2)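 SRB colorimetric readout of cell growth/viability in 96-well format. Means ± SD from triplicate wells; GI (growth inhibition), TGI (total growth inhibition, cytostatic) and LC (cell killing, cytotoxic) parameters derived.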

The next data set has as its system H-MEC-1. The data set is described as above. The following applies: Homo sapiens, HMEC-1, H-MEC-1. The gist of the method:
as §2

The test system of a further data set is LNCaP. The data set is described as follows: SRB colorimetric cell growth inhibition assay, LNCaP. The settings on record: Homo sapiens, LNCaP. The gist of the method:
as §1

A further data set concerns SKOV-3. Briefly: SRB colorimetric cell growth inhibition assay, SKOV-3. The settings on record: Homo sapiens. The gist of the method:
as §2

A further data set relates to PANC-1. The data set is described as follows: SRB colorimetric cell growth inhibition assay, PANC-1. The following applies: Homo sapiens. The gist of the method:
as §1

The subject of another data set is LoVo. The data set is described as follows: SRB colorimetric cell growth inhibition assay, LoVo. The following applies: Homo sapiens, LoVo. In outline: as §1
Another data set concerns K-562. Briefly: SRB colorimetric cell growth inhibition assay, K-562. The following applies: Homo sapiens. In outline:
as §1

A further data set relates to IGROV. Briefly: SRB colorimetric cell growth inhibition assay, IGROV. The settings on record: Homo sapiens, IGROV. In outline:
as §1

A further data set concerns DU-145. Briefly: SRB colorimetric cell growth inhibition assay, DU-145. The settings on record: Homo sapiens. The gist of the method:
as §1

The test system of another data set is A-549. Briefly: SRB colorimetric cell growth inhibition assay, A-549. The settings on record: Homo sapiens. In outline:
as §1

For `COc1cc(-c2c3n(c4c(=O)oc5cc(OC(=O)[C@@H](N)C[S][Fm])c(OC)cc5c24)CCc2c-3cc(OC)c(OC)c2OC(=O)[C@@H](N)C[S][Fm])ccc1OC(=O)[C@@H](N)C[S][Fm]` [Compound 23], the LC50 (concentration giving 50% net cell killing) in [1] was 2.87 µM.
Take `COc1cc(-c2c3n(c4c(=O)oc5cc(OC(=O)[C@@H]6CCCN6)c(OC)cc5c24)CCc2cc(OC(=O)[C@@H]4CCCN4)c(OC)cc2-3)ccc1OC(=O)[C@@H]1CCCN1` [Compound 134]: the GI50 stood at 0.482 µM with IGROV-ET (IGROV-ET, GI=growth inhibition, read-out: GI50 IGROV-ET); 1.73 µM in the data set with SK-MEL-28 (SK-MEL-28, MEL-28, GI=growth inhibition, read-out: GI50 MEL-28); 2.1 µM with SK-BR-3 (SK-BR-3, SK-BR-3, GI=growth inhibition, read-out: GI50 SK-BR-3); 2.85 µM in the data set on HT-29 (HT-29, HT-29, GI=growth inhibition, read-out: GI50 HT-29); 0.519 µM with LoVo-Dox (LOVO-DOX, GI=growth inhibition, read-out: GI50 LOVO-DOX); 2.13 µM in the data set on H-MEC-1 (GI=growth inhibition). Besides, the GI50 is 0.458 µM in the data set on LNCaP (LN-caP, GI=growth inhibition, read-out: GI50 LN-caP); 0.739 µM in the data set with SKOV-3 (SK-OV-3, SKOV-3, GI=growth inhibition, read-out: GI50 SKOV-3); 2.17 µM in the data set on PANC-1 (PANC-1, PANC-1, GI=growth inhibition, read-out: GI50 PANC-1); 2.05 µM in the data set with LoVo (GI=growth inhibition, read-out: GI50 LOVO); 0.571 µM in the data set with K-562 (K562, K-562, GI=growth inhibition, read-out: GI50 K-562); 0.943 µM with IGROV (GI=growth inhibition, read-out: GI50 IGROV). For the same compound, the GI50 with DU-145 (DU-145, DU-145, GI=growth inhibition, read-out: GI50 DU-145) was 2.12 µM; in the data set with A-549 (A549, A-549, GI=growth inhibition, read-out: GI50 A-549), 2.55 µM. The IC (TGI) in the data set on IGROV-ET (IGROV-ET, TGI=total growth inhibition (cytostatic effect), read-out: TGI IGROV-ET) amounted to 2.14 µM; in the data set with SK-MEL-28 (SK-MEL-28, MEL-28, TGI=total growth inhibition (cytostatic effect), read-out: TGI MEL-28), 3.23 µM; with SK-BR-3 (SK-BR-3, SK-BR-3, TGI=total growth inhibition (cytostatic effect), read-out: TGI SK-BR-3), 4.34 µM; with HT-29 (HT-29, total growth inhibition (cytostatic effect), read-out: TGI HT-29), 8.81 µM; in the data set with LoVo-Dox (LOVO-DOX, total growth inhibition (cytostatic effect), read-out: TGI LOVO-DOX), 1.99 µM; with H-MEC-1 (TGI=total growth inhibition (cytostatic effect), read-out: TGI H-MEC-1), 6.51 µM. For the same compound, the IC (TGI) with LNCaP (LN-caP, TGI=total growth inhibition (cytostatic effect), read-out: TGI LN-caP) turned out to be 1.34 µM; with SKOV-3 (SK-OV-3, SKOV-3, TGI=total growth inhibition (cytostatic effect), read-out: TGI SKOV-3), 1.85 µM; with PANC-1 (PANC-1, PANC-1, total growth inhibition (cytostatic effect), read-out: TGI PANC-1) it was 4.53 µM; in the data set with LoVo (total growth inhibition (cytostatic effect), read-out: TGI LOVO) it was 4.21 µM; in the data set on K-562 (K562, K-562, total growth inhibition (cytostatic effect), read-out: TGI K-562), 4.93 µM; in the data set on IGROV (TGI=total growth inhibition (cytostatic effect), read-out: TGI IGROV), 2.48 µM. In addition, the IC (TGI) with DU-145 (DU-145, DU-145, TGI=total growth inhibition (cytostatic effect), read-out: TGI DU-145) was found to be 4.47 µM; in the data set with A-549 (A549, A-549, total growth inhibition (cytostatic effect), read-out: TGI A-549) it was 4.93 µM. Besides, the CC50 with IGROV-ET (read-out: LC50 IGROV-ET, IGROV-ET, LC=cell killing (cytotoxic effect)) turned out to be 7.58 µM; with SK-MEL-28 (SK-MEL-28, read-out: LC50 MEL-28, MEL-28, LC=cell killing (cytotoxic effect)), 6.04 µM; in the data set on SK-BR-3 (SK-BR-3, read-out: LC50 SK-BR-3, SK-BR-3, LC=cell killing (cytotoxic effect)) it was 8.81 µM; with HT-29 (HT-29, read-out: LC50 HT-29, HT-29, cell killing (cytotoxic effect)), 8.81 µM; with LoVo-Dox (read-out: LC50 LOVO-DOX, LOVO-DOX, cell killing (cytotoxic effect)), 7.79 µM; in [2], 8.81 µM. For the same compound, the CC50 in the data set with LNCaP (read-out: LC50 LN-caP, LN-caP, LC=cell killing (cytotoxic effect)) was determined as 4.16 µM; with SKOV-3 (SK-OV-3, read-out: LC50 SKOV-3), 4.26 µM; with PANC-1 (PANC-1, read-out: LC50 PANC-1, PANC-1, cell killing (cytotoxic effect)), 8.81 µM; in the data set with LoVo (read-out: LC50 LOVO, LOVO, cell killing (cytotoxic effect)), 8.67 µM; with K-562 (K562, read-out: LC50 K-562, K-562, cell killing (cytotoxic effect)) it was 8.81 µM; in the data set on IGROV (read-out: LC50 IGROV, IGROV, LC=cell killing (cytotoxic effect)), 6.5 µM. Moreover, the CC50 was found to be 8.81 µM with DU-145 (DU-145, read-out: LC50 DU-145, DU-145, LC=cell killing (cytotoxic effect)) and 8.81 µM in the data set with A-549 (A549, read-out: LC50 A-549, A-549, cell killing (cytotoxic effect)).

Source of the values: US7396837B2, “Antitumoral analogs of lamellarins” (Pharma Mar, S.A.U., priority 2002, dated 2008).
